From article PMC5580309, “Molecular-scale features that govern the effects of O-glycosylation on a carbohydrate-binding module” (Chemical Science, 2015) come the findings set out here.

Bridge positions count the residues as written; N and C are the ends. Square brackets hold non-standard residues; d marks the D form. Peptide text beside a SMILES is read from it. * marks the point of attachment. βGlcNAc = CC(=O)N[C@@H]1[C@@H](O)[C@H](O)[C@@H](CO)O[C@H]1*; X5 = O=P(O)(O)OC[C@H]1O[C@H](*)[C@@H](O)[C@@H](O)[C@@H]1O; X3 = CC(=O)N[C@@H]1[C@@H](O)[C@H](O)[C@@H](CO)O[C@@H]1*; X7 = CC(=O)N[C@H]1[C@@H](O)[C@H](O)[C@@H](CO)O[C@@H]1*; αMan = OC[C@H]1O[C@H](*)[C@@H](O)[C@@H](O)[C@@H]1O; hSer = N[C@@H](CCO)C(=O)O

In general, half-life refers to the time in which the quantity being followed falls by half.

The target of the series is T1, thermolysin (Bacillus thermoproteolyticus, UniProt P00800).
T1 sequence (P00800 233-548): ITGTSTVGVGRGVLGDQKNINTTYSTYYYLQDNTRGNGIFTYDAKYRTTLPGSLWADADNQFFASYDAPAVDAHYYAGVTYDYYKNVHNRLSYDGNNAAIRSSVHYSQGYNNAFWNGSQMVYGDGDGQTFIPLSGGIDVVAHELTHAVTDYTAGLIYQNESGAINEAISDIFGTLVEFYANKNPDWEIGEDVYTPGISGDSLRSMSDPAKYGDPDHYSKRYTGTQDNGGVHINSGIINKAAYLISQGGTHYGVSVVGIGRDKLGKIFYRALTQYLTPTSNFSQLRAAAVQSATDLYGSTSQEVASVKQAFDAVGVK
The series can be described thus: Proteolytic stability: half-life to thermolysin degradation. Format: in vitro ADME. To be noted: for half-life: thermolysin (isolated protease), thermolysin degradation, mean of three trials ± SD, procedures as described previously (ESI ref 18); for Change in Half-Life to Thermolysin Degradation: glyco-variant minus its corresponding unglycosylated CBM (e.g. 2-1), *** not used in the correlation plot. The method, then: All error bars reported are standard deviations of data achieved from three separate trials.
cellulose that were determined in accordance with our procedures as described previously 18.
The results are presented as mean of three trials ± SD. *Denotes an averaged value of four trials

`CC[C@H](C)[C@@H]1NC(=O)CNC(=O)CNC(=O)[C@@H](NC(=O)[C@H](CCC(N)=O)NC(=O)CNC(=O)[C@H](Cc2ccc(O)cc2)NC(=O)[C@H](Cc2c[nH]cn2)NC(=O)[C@@H](CO[C@H]2O[C@H](CO)[C@@H](O)[C@H](O)[C@@H]2O)NC(=O)[C@H](CCC(N)=O)NC(=O)[C@@H](N)[C@@H](C)O)CSSC[C@@H]2NC(=O)[C@H]([C@@H](C)O)NC(=O)[C@H]([C@@H](C)O)NC(=O)CNC(=O)[C@H](CO)NC(=O)[C@H](C)NC(=O)[C@H](CSSC[C@@H](C(=O)N[C@@H](CC(C)C)C(=O)O)NC(=O)[C@H](CCC(N)=O)NC(=O)[C@H](CO)NC(=O)[C@H](Cc3ccc(O)cc3)NC(=O)[C@H](Cc3ccc(O)cc3)NC(=O)[C@@H]3CCCN3C(=O)[C@H](CC(N)=O)NC(=O)[C@H](CC(C)C)NC(=O)[C@H](C(C)C)NC(=O)[C@H](CCC(N)=O)NC2=O)NC(=O)[C@H](C(C)C)NC(=O)[C@H]([C@@H](C)O)NC(=O)[C@@H]2CCCN2C(=O)CNC(=O)[C@H](CO)NC(=O)[C@H](Cc2ccc(O)cc2)NC(=O)CNC1=O` [CBM variant 17] (H-TQ[dS](αMan)HYGQCGGIGYSGPTVCASGTTCQVLNPYYSQCL-OH; disulfide 8-25, 19-35) had a half-life of 10.2 ± 1.2 min. Compound `CC[C@H](C)[C@@H]1NC(=O)CNC(=O)CNC(=O)[C@@H](NC(=O)[C@H](CCC(N)=O)NC(=O)CNC(=O)[C@H](Cc2ccc(O)cc2)NC(=O)[C@H](Cc2c[nH]cn2)NC(=O)[C@H](CCO)NC(=O)[C@H](CCC(N)=O)NC(=O)[C@@H](N)[C@@H](C)O)CSSC[C@@H]2NC(=O)[C@H]([C@@H](C)O)NC(=O)[C@H]([C@@H](C)O)NC(=O)CNC(=O)[C@H](CO)NC(=O)[C@H](C)NC(=O)[C@H](CSSC[C@@H](C(=O)N[C@@H](CC(C)C)C(=O)O)NC(=O)[C@H](CCC(N)=O)NC(=O)[C@H](CO)NC(=O)[C@H](Cc3ccc(O)cc3)NC(=O)[C@H](Cc3ccc(O)cc3)NC(=O)[C@@H]3CCCN3C(=O)[C@H](CC(N)=O)NC(=O)[C@H](CC(C)C)NC(=O)[C@H](C(C)C)NC(=O)[C@H](CCC(N)=O)NC2=O)NC(=O)[C@H](C(C)C)NC(=O)[C@H]([C@@H](C)O)NC(=O)[C@@H]2CCCN2C(=O)CNC(=O)[C@H](CO)NC(=O)[C@H](Cc2ccc(O)cc2)NC(=O)CNC1=O` [CBM variant 18] (H-TQ[hSer]HYGQCGGIGYSGPTVCASGTTCQVLNPYYSQCL-OH; disulfide 8-25, 19-35) gave a half-life of 18 ± 0.6 min. This half-life lies about 1.8-fold higher than the previous one. On to `CC[C@H](C)[C@@H]1NC(=O)CNC(=O)CNC(=O)[C@@H](NC(=O)[C@H](CCC(N)=O)NC(=O)CNC(=O)[C@H](Cc2ccc(O)cc2)NC(=O)[C@H](Cc2c[nH]cn2)NC(=O)[C@H](CCO[C@H]2O[C@H](CO)[C@@H](O)[C@H](O)[C@@H]2O)NC(=O)[C@H](CCC(N)=O)NC(=O)[C@@H](N)[C@@H](C)O)CSSC[C@@H]2NC(=O)[C@H]([C@@H](C)O)NC(=O)[C@H]([C@@H](C)O)NC(=O)CNC(=O)[C@H](CO)NC(=O)[C@H](C)NC(=O)[C@H](CSSC[C@@H](C(=O)N[C@@H](CC(C)C)C(=O)O)NC(=O)[C@H](CCC(N)=O)NC(=O)[C@H](CO)NC(=O)[C@H](Cc3ccc(O)cc3)NC(=O)[C@H](Cc3ccc(O)cc3)NC(=O)[C@@H]3CCCN3C(=O)[C@H](CC(N)=O)NC(=O)[C@H](CC(C)C)NC(=O)[C@H](C(C)C)NC(=O)[C@H](CCC(N)=O)NC2=O)NC(=O)[C@H](C(C)C)NC(=O)[C@H]([C@@H](C)O)NC(=O)[C@@H]2CCCN2C(=O)CNC(=O)[C@H](CO)NC(=O)[C@H](Cc2ccc(O)cc2)NC(=O)CNC1=O` [CBM variant 19] (H-TQ[hSer](αMan)HYGQCGGIGYSGPTVCASGTTCQVLNPYYSQCL-OH; disulfide 8-25, 19-35), for which the “Change in Half-Life to Thermolysin Degradation” value (from here on “Change in Half-Life”) was determined as 2.4 min and the half-life was 20.4 ± 4.2 min.

For the compound `CC[C@H](C)[C@@H]1NC(=O)CNC(=O)CNC(=O)[C@@H](NC(=O)[C@H](CCC(N)=O)NC(=O)CNC(=O)[C@H](Cc2ccc(O)cc2)NC(=O)[C@H](Cc2c[nH]cn2)NC(=O)[C@H](CO[C@H]2O[C@H](COP(=O)(O)O)[C@@H](O)[C@H](O)[C@@H]2O)NC(=O)[C@H](CCC(N)=O)NC(=O)[C@@H](N)[C@@H](C)O)CSSC[C@@H]2NC(=O)[C@H]([C@@H](C)O)NC(=O)[C@H]([C@@H](C)O)NC(=O)CNC(=O)[C@H](CO)NC(=O)[C@H](C)NC(=O)[C@H](CSSC[C@@H](C(=O)N[C@@H](CC(C)C)C(=O)O)NC(=O)[C@H](CCC(N)=O)NC(=O)[C@H](CO)NC(=O)[C@H](Cc3ccc(O)cc3)NC(=O)[C@H](Cc3ccc(O)cc3)NC(=O)[C@@H]3CCCN3C(=O)[C@H](CC(N)=O)NC(=O)[C@H](CC(C)C)NC(=O)[C@H](C(C)C)NC(=O)[C@H](CCC(N)=O)NC2=O)NC(=O)[C@H](C(C)C)NC(=O)[C@H]([C@@H](C)O)NC(=O)[C@@H]2CCCN2C(=O)CNC(=O)[C@H](CO)NC(=O)[C@H](Cc2ccc(O)cc2)NC(=O)CNC1=O` [CBM variant 20] (H-TQS(X5)HYGQCGGIGYSGPTVCASGTTCQVLNPYYSQCL-OH; disulfide 8-25, 19-35), the “Change in Half-Life” value is 20.4 min and the half-life was 34.2 ± 3.6 min. For the compound `CC[C@H](C)[C@@H]1NC(=O)CNC(=O)CNC(=O)[C@@H](NC(=O)[C@H](CCC(N)=O)NC(=O)CNC(=O)[C@H](Cc2ccc(O)cc2)NC(=O)[C@H](Cc2c[nH]cn2)NC(=O)[C@H](CO[C@H]2O[C@H](CO)[C@@H](O)[C@H](O)[C@@H]2NC(C)=O)NC(=O)[C@H](CCC(N)=O)NC(=O)[C@@H](N)[C@@H](C)O)CSSC[C@@H]2NC(=O)[C@H]([C@@H](C)O)NC(=O)[C@H]([C@@H](C)O)NC(=O)CNC(=O)[C@H](CO)NC(=O)[C@H](C)NC(=O)[C@H](CSSC[C@@H](C(=O)N[C@@H](CC(C)C)C(=O)O)NC(=O)[C@H](CCC(N)=O)NC(=O)[C@H](CO)NC(=O)[C@H](Cc3ccc(O)cc3)NC(=O)[C@H](Cc3ccc(O)cc3)NC(=O)[C@@H]3CCCN3C(=O)[C@H](CC(N)=O)NC(=O)[C@H](CC(C)C)NC(=O)[C@H](C(C)C)NC(=O)[C@H](CCC(N)=O)NC2=O)NC(=O)[C@H](C(C)C)NC(=O)[C@H]([C@@H](C)O)NC(=O)[C@@H]2CCCN2C(=O)CNC(=O)[C@H](CO)NC(=O)[C@H](Cc2ccc(O)cc2)NC(=O)CNC1=O` [CBM variant 21] (H-TQS(X7)HYGQCGGIGYSGPTVCASGTTCQVLNPYYSQCL-OH; disulfide 8-25, 19-35), the “Change in Half-Life” value came out at 27.6 min and the half-life was 41.4 ± 5.4 min. Regarding `CC[C@H](C)[C@@H]1NC(=O)CNC(=O)CNC(=O)[C@@H](NC(=O)[C@H](CCC(N)=O)NC(=O)CNC(=O)[C@H](Cc2ccc(O)cc2)NC(=O)[C@H](Cc2c[nH]cn2)NC(=O)[C@H](CO[C@H]2O[C@H](CO)[C@@H](O)[C@H](O)[C@H]2NC(C)=O)NC(=O)[C@H](CCC(N)=O)NC(=O)[C@@H](N)[C@@H](C)O)CSSC[C@@H]2NC(=O)[C@H]([C@@H](C)O)NC(=O)[C@H]([C@@H](C)O)NC(=O)CNC(=O)[C@H](CO)NC(=O)[C@H](C)NC(=O)[C@H](CSSC[C@@H](C(=O)N[C@@H](CC(C)C)C(=O)O)NC(=O)[C@H](CCC(N)=O)NC(=O)[C@H](CO)NC(=O)[C@H](Cc3ccc(O)cc3)NC(=O)[C@H](Cc3ccc(O)cc3)NC(=O)[C@@H]3CCCN3C(=O)[C@H](CC(N)=O)NC(=O)[C@H](CC(C)C)NC(=O)[C@H](C(C)C)NC(=O)[C@H](CCC(N)=O)NC2=O)NC(=O)[C@H](C(C)C)NC(=O)[C@H]([C@@H](C)O)NC(=O)[C@@H]2CCCN2C(=O)CNC(=O)[C@H](CO)NC(=O)[C@H](Cc2ccc(O)cc2)NC(=O)CNC1=O` [CBM variant 22] (H-TQS(X3)HYGQCGGIGYSGPTVCASGTTCQVLNPYYSQCL-OH; disulfide 8-25, 19-35), the “Change in Half-Life” value was 10.2 min and the half-life is 24 ± 0.6 min.

Take `CC[C@H](C)[C@@H]1NC(=O)CNC(=O)CNC(=O)[C@@H](NC(=O)[C@H](CCC(N)=O)NC(=O)CNC(=O)[C@H](Cc2ccc(O)cc2)NC(=O)[C@H](Cc2c[nH]cn2)NC(=O)[C@H](CO[C@@H]2O[C@H](CO)[C@@H](O)[C@H](O)[C@H]2NC(C)=O)NC(=O)[C@H](CCC(N)=O)NC(=O)[C@@H](N)[C@@H](C)O)CSSC[C@@H]2NC(=O)[C@H]([C@@H](C)O)NC(=O)[C@H]([C@@H](C)O)NC(=O)CNC(=O)[C@H](CO)NC(=O)[C@H](C)NC(=O)[C@H](CSSC[C@@H](C(=O)N[C@@H](CC(C)C)C(=O)O)NC(=O)[C@H](CCC(N)=O)NC(=O)[C@H](CO)NC(=O)[C@H](Cc3ccc(O)cc3)NC(=O)[C@H](Cc3ccc(O)cc3)NC(=O)[C@@H]3CCCN3C(=O)[C@H](CC(N)=O)NC(=O)[C@H](CC(C)C)NC(=O)[C@H](C(C)C)NC(=O)[C@H](CCC(N)=O)NC2=O)NC(=O)[C@H](C(C)C)NC(=O)[C@H]([C@@H](C)O)NC(=O)[C@@H]2CCCN2C(=O)CNC(=O)[C@H](CO)NC(=O)[C@H](Cc2ccc(O)cc2)NC(=O)CNC1=O` [CBM variant 23] (H-TQS(βGlcNAc)HYGQCGGIGYSGPTVCASGTTCQVLNPYYSQCL-OH; disulfide 8-25, 19-35): the “Change in Half-Life” value was determined as 5.4 min and the half-life is 19.2 ± 0.6 min.
